Reference: patent publication US20200079793A1, “COMPOUNDS AND METHODS FOR MODULATING ADENOSINE A2B RECEPTOR AND ADENOSINE A2A RECEPTOR” (CORVUS PHARMACEUTICALS, INC., priority 2018, published 2020)

Tests used:
[1] = target: T1, A3R (Homo sapiens, UniProt P0DMS8); test: Activity assay of adenosine receptor modulators, A3R cAMP (Table 1); format: cell-based
T1 sequence (P0DMS8 1-318): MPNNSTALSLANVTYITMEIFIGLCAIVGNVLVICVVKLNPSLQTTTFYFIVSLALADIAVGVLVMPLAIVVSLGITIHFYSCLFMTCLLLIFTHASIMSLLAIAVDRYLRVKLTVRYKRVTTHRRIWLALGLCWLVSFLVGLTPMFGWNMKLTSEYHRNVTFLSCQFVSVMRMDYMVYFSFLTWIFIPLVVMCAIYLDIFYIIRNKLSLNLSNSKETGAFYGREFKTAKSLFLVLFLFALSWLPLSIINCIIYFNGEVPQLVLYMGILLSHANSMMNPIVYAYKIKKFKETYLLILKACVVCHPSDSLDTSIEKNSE
Experimental: (§1) Compounds (e.g., adenosine receptor modulators) were tested for its biological activity. The assay results in Table 1 indicate (+ means >1 μM; ++ means 100 nM to 1 μM; +++ means <100 nM).

[2] = target: T2, A1R (Homo sapiens, UniProt P30542); test: Activity assay of adenosine receptor modulators, A1R cAMP (Table 1); format: cell-based
T2 sequence (P30542 1-326): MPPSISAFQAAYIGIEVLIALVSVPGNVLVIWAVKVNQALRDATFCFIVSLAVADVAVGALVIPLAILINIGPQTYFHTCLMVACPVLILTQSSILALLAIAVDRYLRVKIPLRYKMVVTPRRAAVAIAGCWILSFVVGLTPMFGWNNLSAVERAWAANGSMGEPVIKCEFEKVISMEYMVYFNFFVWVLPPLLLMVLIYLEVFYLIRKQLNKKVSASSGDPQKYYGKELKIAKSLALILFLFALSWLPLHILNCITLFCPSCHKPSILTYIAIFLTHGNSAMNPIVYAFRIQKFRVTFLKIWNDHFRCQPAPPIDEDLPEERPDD
Experimental: as §1

[3] = target: T3, Adenosine A2B Receptor (Homo sapiens, UniProt P29275); test: Activity assay of adenosine receptor modulators, Adenosine A2B Receptor (Table 1); format: biochemical; conditions: cAMP; read-out: A2BR cAMP IC50
T3 sequence (P29275 1-332): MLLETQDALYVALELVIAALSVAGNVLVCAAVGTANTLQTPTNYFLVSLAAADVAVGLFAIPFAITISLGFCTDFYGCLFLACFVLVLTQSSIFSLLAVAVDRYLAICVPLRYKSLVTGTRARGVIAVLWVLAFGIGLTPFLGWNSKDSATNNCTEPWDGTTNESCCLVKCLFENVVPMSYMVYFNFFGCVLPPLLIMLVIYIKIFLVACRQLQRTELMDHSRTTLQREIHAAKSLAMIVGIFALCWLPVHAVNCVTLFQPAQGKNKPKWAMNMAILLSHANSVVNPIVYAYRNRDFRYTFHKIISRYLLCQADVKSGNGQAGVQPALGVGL
Experimental: as §1

[4] = target: Adenosine A2A Receptor (Homo sapiens, UniProt P29274); test: Activity assay of adenosine receptor modulators, Adenosine A2A Receptor (Table 1); format: biochemical; conditions: cAMP; read-out: A2AR cAMP IC50
Experimental: as §1

Sequence of Adenosine A2A Receptor (P29274 whole entry): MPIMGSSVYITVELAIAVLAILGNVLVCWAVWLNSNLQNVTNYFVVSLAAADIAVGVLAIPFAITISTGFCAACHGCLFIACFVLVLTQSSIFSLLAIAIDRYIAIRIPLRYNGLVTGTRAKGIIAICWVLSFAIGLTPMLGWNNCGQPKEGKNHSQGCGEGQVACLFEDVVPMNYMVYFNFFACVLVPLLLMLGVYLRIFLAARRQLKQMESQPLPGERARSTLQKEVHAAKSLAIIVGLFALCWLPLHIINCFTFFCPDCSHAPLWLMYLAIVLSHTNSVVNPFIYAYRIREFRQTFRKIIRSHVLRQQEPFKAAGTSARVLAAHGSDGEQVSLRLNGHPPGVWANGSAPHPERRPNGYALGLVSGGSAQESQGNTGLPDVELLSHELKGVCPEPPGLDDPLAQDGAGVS

IC50 [1]	IC50 [2]	IC50 [3]	IC50 [4]	SMILES
100 to 1000 nM	> 1000 nM	< 100 nM	100 to 1000 nM	Cc1nc2nc(N[C@@H](C)c3ccccn3)nc(C(=O)N3CCCC3)c2s1 [Example 9, (S)-(2-Methyl-5-((1-(pyridin-2-yl)ethyl)amino)thiazolo[4,5-d]pyrimidin-7-yl)(pyrrolidin-1-yl)methanone]
> 1000 nM	100 to 1000 nM	< 100 nM	100 to 1000 nM	Cc1nc2nc(N[C@@H](C)c3cncc(F)c3)nc(C(=O)NCC3CCOCC3)c2s1 [Example 11, (S)-5-((1-(5-Fluoropyridin-3-yl)ethyl)amino)-2-methyl-N-((tetrahydro-2H-pyran-4-yl)methyl)thiazolo[4,5-d]pyrimidine-7-carboxamide]
> 1000 nM	> 1000 nM	< 100 nM	> 1000 nM	Cc1nc2nc(N[C@@H](C)c3cccnc3)nc(C(=O)NC[C@@H](C)O)c2s1 [Example 12, N—((R)-2-Hydroxypropyl)-2-methyl-5-(((S)-1-(pyridin-3-yl)ethyl)amino)thiazolo[4,5-d]pyrimidine-7-carboxamide]
100 to 1000 nM	100 to 1000 nM	< 100 nM	100 to 1000 nM	Cc1nc2nc(N[C@@H](C)c3cncc(F)c3)nc(C(=O)NC[C@@H]3CCOC3)c2s1 [Example 13, 5-(((S)-1-(5-Fluoropyridin-3-yl)ethyl)amino)-2-methyl-N—(((S)-tetrahydrofuran-3-yl)methyl)thiazolo[4,5-d]pyrimidine-7-carboxamide]
> 1000 nM	100 to 1000 nM	< 100 nM	> 1000 nM	Cc1nc2nc(N[C@@H](C)c3cncc(F)c3)nc(C(=O)NC[C@H]3CCOC3)c2s1 [Example 14, 5-(((S)-1-(5-Fluoropyridin-3-yl)ethyl)amino)-2-methyl-N—(((R)-tetrahydrofuran-3-yl)methyl)thiazolo[4,5-d]pyrimidine-7-carboxamide]
> 1000 nM	> 1000 nM	< 100 nM	> 1000 nM	Cc1nc2nc(N[C@@H](C)c3cccnc3)nc(C(=O)NC[C@H](C)O)c2s1 [Example 15, N—((S)-2-Hydroxypropyl)-2-methyl-5-(((S)-1-(pyridin-3-yl)ethyl)amino)thiazolo[4,5-d]pyrimidine-7-carboxamide]
> 1000 nM	> 1000 nM	< 100 nM	> 1000 nM	Cc1nc2nc(N[C@@H](C)c3cccnc3)nc(C(=O)N3CC[C@@H](O)C3)c2s1 [Example 16, ((R)-3-Hydroxypyrrolidin-1-yl)(2-methyl-5-(((S)-1-(pyridin-3-yl)ethyl)amino)thiazolo[4,5-d]pyrimidin-7-yl)methanone]
> 1000 nM	> 1000 nM	< 100 nM	> 1000 nM	Cc1nc2nc(N[C@@H](C)c3ccccn3)nc(C(=O)N3CC[C@H](O)C3)c2s1 [Example 17, ((S)-3-Hydroxypyrrolidin-1-yl)(2-methyl-5-(((S)-1-(pyridin-2-yl)ethyl)amino)thiazolo[4,5-d]pyrimidin-7-yl)methanone]
> 1000 nM	> 1000 nM	< 100 nM	> 1000 nM	Cc1nc2nc(N[C@@H](C)c3cccnc3)nc(C(=O)N3CC[C@H](O)C3)c2s1 [Example 18, ((S)-3-Hydroxypyrrolidin-1-yl)(2-methyl-5-(((S)-1-(pyridin-3-yl)ethyl)amino)thiazolo[4,5-d]pyrimidin-7-yl)methanone]
> 1000 nM	> 1000 nM	< 100 nM	> 1000 nM	Cc1nc2nc(N[C@@H](C)c3cncc(F)c3)nc(C(=O)NCCc3ccc(O)cc3)c2s1 [Example 21, (S)-5-((1-(5-Fluoropyridin-3-yl)ethyl)amino)-N-(4-hydroxyphenethyl)-2-methylthiazolo[4,5-d]pyrimidine-7-carboxamide]
> 1000 nM	> 1000 nM	< 100 nM	> 1000 nM	CC(=O)Nc1ccc(CCNC(=O)c2nc(N[C@@H](C)c3cncc(F)c3)nc3nc(C)sc23)cc1 [Example 24, (S)—N-(4-Acetamidophenethyl)-5-((1-(5-fluoropyridin-3-yl)ethyl)amino)-2-methylthiazolo[4,5-d]pyrimidine-7-carboxamide]
> 1000 nM	> 1000 nM	< 100 nM	100 to 1000 nM	COCCNC(=O)c1nc(N[C@@H](C)c2cncc(F)c2)nc2nc(C)sc12 [Example 25, (S)-5-((1-(5-Fluoropyridin-3-yl)ethyl)amino)-N-(2-methoxyethyl)-2-methylthiazolo[4,5-d]pyrimidine-7-carboxamide]
> 1000 nM	> 1000 nM	< 100 nM	100 to 1000 nM	CC(=O)NC1CN(C(=O)c2nc(N[C@@H](C)c3cncc(F)c3)nc3nc(C)sc23)C1 [Example 28, (S)—N-(1-(5-((1-(5-Fluoropyridin-3-yl)ethyl)amino)-2-methylthiazolo[4,5-d]pyrimidine-7-carbonyl)azetidin-3-yl)acetamide]
100 to 1000 nM	> 1000 nM	< 100 nM	100 to 1000 nM	CC(=O)N[C@H]1CCN(C(=O)c2nc(N[C@@H](C)c3cncc(F)c3)nc3nc(C)sc23)C1 [Example 29, N—((S)-1-(5-(((S)-1-(5-Fluoropyridin-3-yl)ethyl)amino)-2-methylthiazolo[4,5-d]pyrimidine-7-carbonyl)pyrrolidin-3-yl)acetamide]
> 1000 nM	> 1000 nM	100 to 1000 nM	> 1000 nM	CC(=O)N[C@@H]1CCN(C(=O)c2nc(N[C@@H](C)c3cncc(F)c3)nc3nc(C)sc23)C1 [Example 30, N—((R)-1-(5-(((S)-1-(5-Fluoropyridin-3-yl)ethyl)amino)-2-methylthiazolo[4,5-d]pyrimidine-7-carbonyl)pyrrolidin-3-yl)acetamide]
> 1000 nM	> 1000 nM	< 100 nM	> 1000 nM	Cc1nc2nc(N[C@@H](C)c3cncc(F)c3)nc(C(=O)NCCc3ccc(S(N)(=O)=O)cc3)c2s1 [Example 31, (S)-5-((1-(5-Fluoropyridin-3-yl)ethyl)amino)-2-methyl-N-(4-sulfamoylphenethyl)thiazolo[4,5-d]pyrimidine-7-carboxamide]
> 1000 nM	> 1000 nM	< 100 nM	> 1000 nM	Cc1nc2nc(N[C@@H](C)c3cncc(F)c3)nc(C(=O)NCCC3CCNCC3)c2s1 [Example 32, (S)-5-((1-(5-Fluoropyridin-3-yl)ethyl)amino)-2-methyl-N-(2-(piperidin-4-yl)ethyl)thiazolo[4,5-d]pyrimidine-7-carboxamide]
> 1000 nM	> 1000 nM	< 100 nM	> 1000 nM	Cc1nc2nc(N[C@@H](C)c3cncc(F)c3)nc(C(=O)N3CC(C(N)=O)C3)c2s1 [Example 33, (S)-1-(5-((1-(5-Fluoropyridin-3-yl)ethyl)amino)-2-methylthiazolo[4,5-d]pyrimidine-7-carbonyl)azetidine-3-carboxamide]
< 100 nM	> 1000 nM	< 100 nM	< 100 nM	Cc1nc2nc(N[C@@H](C)c3cncc(F)c3)nc(C(=O)N3CC(NC(=O)C(C)(C)C)C3)c2s1 [Example 37, (S)—N-(1-(5-((1-(5-Fluoropyridin-3-yl)ethyl)amino)-2-methylthiazolo[4,5-d]pyrimidine-7-carbonyl)azetidin-3-yl)pivalamide]
> 1000 nM	> 1000 nM	< 100 nM	> 1000 nM	CCNC(=O)C1CCN(C(=O)c2nc(N[C@@H](C)c3cncc(F)c3)nc3nc(C)sc23)C1 (stereo partly drawn) [Example 38, N-ethyl-1-(5-(((S)-1-(5-fluoropyridin-3-yl)ethyl)amino)-2-methylthiazolo[4,5-d]pyrimidine-7-carbonyl)pyrrolidine-3-carboxamide]
> 1000 nM	> 1000 nM	< 100 nM	> 1000 nM	CC(=O)NCC1CN(C(=O)c2nc(N[C@@H](C)c3cncc(F)c3)nc3nc(C)sc23)C1 [Example 39, (S)—N-((1-(5-((1-(5-Fluoropyridin-3-yl)ethyl)amino)-2-methylthiazolo[4,5-d]pyrimidine-7-carbonyl)azetidin-3-yl)methyl)acetamide]
